Measured values published in patent US20240197682A1, “METHOD FOR TREATING NEUROLOGICAL DISEASES USING SUPRAMOLECULE POLYMER THERAPEUTICS” (The Regents of the University of California, priority 2022, published 2024).
Where two headings read alike, the source gives them in different places.

What was measured:
[1] = molecular target: tau fibrils (Homo sapiens, UniProt P10636); conditions: cited from earlier work
[2] = Parallel Artificial Membrane Permeability Assay (PAMPA); assay type: in vitro ADME; conditions: for Papp at 4 hr, 200 uM: PAMPA, read-out: PAMPA: P_app; for PAMPA: P_app: 200 uM test compound, 4 hr
[3] = molecular target: T1, YFP-tagged full length 0N4R-Tau P301S aggregates seeded by 416-AD11A lysate (T24 cells) (Homo sapiens, UniProt P10636, P618S); assay: Tau-AD high throughput screening (counter screen) in T24 cells; assay type: cell-based; conditions: T24 cells transfected with 416-AD11A lysate
T1 construct: C-terminally YFP-tagged full length 0N4R-Tau carrying a P301S mutation; expressed in transfected cells
T1 sequence (P10636 1-383 isoform P10636-6 P243S): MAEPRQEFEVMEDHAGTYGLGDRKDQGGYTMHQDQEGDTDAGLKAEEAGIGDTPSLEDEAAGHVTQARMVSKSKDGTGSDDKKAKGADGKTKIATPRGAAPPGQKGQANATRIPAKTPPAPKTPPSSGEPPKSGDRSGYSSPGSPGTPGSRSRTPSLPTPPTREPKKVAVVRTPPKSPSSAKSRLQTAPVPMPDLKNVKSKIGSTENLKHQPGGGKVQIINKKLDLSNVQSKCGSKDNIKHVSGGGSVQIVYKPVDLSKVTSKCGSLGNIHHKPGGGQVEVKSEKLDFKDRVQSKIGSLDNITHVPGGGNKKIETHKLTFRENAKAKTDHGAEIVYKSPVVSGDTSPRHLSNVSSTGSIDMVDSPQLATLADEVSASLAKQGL
Description: A fragment of the Middle Tempral Gyrus (MTG) from Alzheimer's Disease (AD) patient 2217 was resuspended in 9 volumes of PBS (ml/g of brain) and homogenized 3×12 seconds using a probe homogenizer (Thomas Scientific) with disposable Omni Tip plastic homogenizing probes (Thomas Scinetific Cat No 3409Y77) to generate a 10% brain homogenate (10% AD11-BH). The 10% AD11-BH was clarified of insoluble debris by centrifugation at 800×g for 5 minutes. The resulting supernatant was collected and the protein concentration of this clarified BH (AD11-CBH) was determined by bicinchoninic acid assay (BCA) (Thermo Fisher Cat No. 23227). HEK293 cells stably expressing a C-terminally Clover-tagged truncated 4R-Tau^243-382 transgene containing the P301L and V337M mutations and a C-terminally Ruby-tagged truncated 3R-Tau^243-382 transgene containing the L266V and V337M mutations (128/139 cells) were transfected with the AD11-CBH using lipofectamine 2000 (LF2K) (Thermo Fisher Cat No. 11668500). Briefly, 0.32 μl of LF2K were diluted in 5 μl Opti-MEM (Thermo Scientific Cat No 31985070) per well of a 384-well plate and incubated for 5 min at room temperature (RT). This mixture was added to 0.32 μg of AD11-CBH diluted in 5 μl of PBS per well of a 384-well plate and vortex briefly. The transfection mixture was incubated at room temperature for 90 min. The transfection complexes were subsequently added to a single well of a 384-well plate containing 3500 128/139 cells. After 3 days the cells were harvested, counted and plated at a density of 1 cell/well in a 96-well plate. A clonal cell line containing Clover and Ruby positive Tau aggregates was selected and termed 416-AD11A cells. Following the expansion of these 416-AD11A cells, a cell lysate was prepared by freeze/thaw. The cells from a confluent T175 flask were harvested in 1 ml of PBS containing 1× protease inhibitor cocktail by scraping. The cell suspension was subjected to 4 cycles of freezing in liquid nitrogen for 5 minutes followed by thawing at 37° C. for 5 minutes. The resulting cell lysate was centrifuged at 2000 RPM for 10 minutes to remove the cell debris and the protein concentration of the resulting 416-AD11A lysate was determined by BCA assay and aliquots frozen for future use.
HEK293 cells stably expressing C-terminally YFP-tagged full length 0N4R-Tau carrying a P301S mutation (T24 cells) are plated at a density of 4000 cells per well of a 384-well black walled, clear bottom plate (Greiner Cat No 5678-1091Q) in 60 μl of complete DMEM (DMEM (Corning Cat No 10-013-CV), 10% FBS (VWR Cat No 97068-085, 0.5% Penicilin/streptomycin (Gibco Cat No 15140-122)) containing 0.1 μg/ml Hoechst Dye (Thermo Scientific Cat No H3570). Transfection complexes are prepared by diluting 0.15 μg of 416-AD11A lysate or HEK lysate in 5 μl of PBS per well to be transfected and 0.15 μl of Lipofectamine 2000 (LF2K) (ThermoFisher Cat No 11668500) in 5 μl of Opti-MEM per well to be transfected in separate tubes. The pre-diluted 416-AD11A or HEK lysates and LF2K are subsequently mixed and allowed to incubate for 90 minutes at RT. A 10 μl aliquot of the 416-AD11A or HEK transfection complexes is added to the appropriate wells of the 384-well plate containing the T24 cells using the Bravo liquid handling platform (Agilent). Wells A23-P24 of the 384-well plate are transfected with HEK lysate to act as a reference point for spontaneous aggregation of 0N4R^P301S and for transfection related toxicity. The dilution of test compounds is performed using the Bravo liquid handling platform (Agilent). The control is DMSO in the absence of any test compound. Briefly, 1 μl of each test compound (5 mM stock) in the 384-well test plate was transferred to a 384-well plate (Greiner Cat No 781280) containing 61.5 μl of complete DMEM to generate a working stock of compounds at 80 μM. […]

tau fibrils, sequence (P10636 1-441 isoform P10636-8): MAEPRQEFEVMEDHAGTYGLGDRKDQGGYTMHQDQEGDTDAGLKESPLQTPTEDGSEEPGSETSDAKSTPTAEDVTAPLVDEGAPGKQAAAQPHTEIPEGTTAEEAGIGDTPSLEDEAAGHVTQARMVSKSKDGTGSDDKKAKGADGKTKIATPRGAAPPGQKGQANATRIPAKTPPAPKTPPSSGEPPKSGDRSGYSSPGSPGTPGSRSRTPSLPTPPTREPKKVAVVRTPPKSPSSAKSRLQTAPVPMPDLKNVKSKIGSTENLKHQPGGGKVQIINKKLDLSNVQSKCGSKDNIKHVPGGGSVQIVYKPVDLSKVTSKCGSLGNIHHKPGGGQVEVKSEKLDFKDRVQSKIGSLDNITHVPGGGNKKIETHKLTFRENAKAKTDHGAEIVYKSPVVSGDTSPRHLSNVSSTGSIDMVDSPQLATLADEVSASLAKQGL

Compound	IC50 ([1]; GTP-1, read-out: measured IC50)	Kd ([1]; tau PET tracer GTP-1, estimated Kd)	Papp at 4 hr, 200 uM ([2]; pH 5.0, 200 uM test compound)	PAMPA: P_app ([2]; pH 7.4)	AD Tau Aggregates (% control) [3]	PAMPA: P_app ([2]; pH 5.0)	Papp at 4 hr, 200 uM ([2]; pH 7.4, 200 uM test compound)
FCCC1CCN(c2ccn3c(n2)nc2ccccc23)CC1 [GTP-1]	22 nM	11 nM					
CNC(=O)c1ncc2c(n1)c(-c1ccc(Cl)cc1)nn2-c1ccnc(C(C)(F)F)n1 [Compound 288, 3-(4-chlorophenyl)-1-[2-(1,1-difluoroethyl)pyrimidin-4-yl]-N-methyl-pyrazolo[4,3-d]pyrimidine-5-carboxamide]			> 50 ×10⁻⁶ cm/s	>50 ×10e−6 cm/sec	98 % control		
CC(=O)Nc1ncc2c(-c3ccccc3)nn(CC3CCCCC3)c2n1 [Compound 280]				19.5 ×10e−6 cm/sec	90 % control	19.5 ×10e−6 cm/sec	
CNC(=O)c1ncc2c(C#Cc3ccccc3)nn(-c3ccc(OC(F)F)cc3)c2n1 [Compound 290, 1-(4-(difluoromethoxy)phenyl)-N-methyl-3-(phenylethynyl)-1H-pyrazolo[3,4-d]pyrimidine-6-carboxamide]			16.5 ×10⁻⁶ cm/s		95 % control		39.3 ×10⁻⁶ cm/s
O=c1nc2c(ccn2C(F)(F)F)cn1-c1nc(N2Cc3ccccc3C2)oc1-c1ccc(F)cc1 [Compound 242]				5.72 ×10e−6 cm/sec	99 % control		
